# Patent publication EP0046349A1, “Clavulanic acid derivatives, their preparation and use” (BEECHAM GROUP PLC, priority 1980, dated 1982)
# What was measured:
# Format in all cases: cell-based
# Staph. aureus Russell [1] = experiment: standard antibacterial test; parameters: unit not given here; conditions: compound alone
# Source text: IN A STANDARD ANTIBACTERIAL TEST, THE FOLLOWING DATA WERE OBTAINED
# Staph. aureus Russell [2] = experiment: standard MIC synergy test
# Source text: (§1) […]
# Escherichia coli JT39 = experiment: standard MIC synergy test
# Source text: as §1
# Klebsiella Aerogenes E70 = experiment: standard MIC synergy test; conditions: Amoxycillin alone, no inhibitor (comparison); unit assumed
# Source text: as §1
# [3] = Concentration of inhibitor 1.0 μg/ml, MIC of amoxycillin in presence of inhibitor, 'Inhibited' = inhibitor alone inhibits growth
# [4] = Concentration of inhibitor 5.0 μg/ml, MIC of amoxycillin in presence of inhibitor, 'Inhibited' = inhibitor alone inhibits growth
# [5] = Concentration of inhibitor 5.0 μg/ml, MIC of amoxycillin in presence of inhibitor
# [6] = Amoxycillin alone, no inhibitor (comparison), unit assumed
SMILES,"standard antibacterial test, Staph. Aureus Russell (Staph. aureus Russell [1])","MIC synergy test, Staph. aureus Russell (Staph. aureus Russell [2]; [4])",other results
CNC(=NC/C=C1\O[C@@H]2CC(=O)N2[C@H]1C(=O)O)c1ccccc1 [Example 23],2.0,Inhibited,"MIC synergy test, Staph. aureus Russell (Staph. aureus Russell [2]; [3]): Inhibited"
"CCN(C=NC/C=C1\O[C@@H]2CC(=O)N2[C@H]1C(=O)O)CC [Example 21, 9-N-(diethylaminomethylene) amino-9-deoxyclavulanic acid.]",4.0,Inhibited,
"NC(=NC/C=C1\O[C@@H]2CC(=O)N2[C@H]1C(=O)O)C1CC1 [Example 19, 9-N-(amino-cyclopropylmethylene) amino-9-deoxyclavulanic acid.]",4.0,Inhibited,"MIC synergy test, Escherichia coli JT39 (Escherichia coli JT39; [5]): Inhibited"
"O=C(O)[C@H]1/C(=C/CN=C2CCCCN2)O[C@@H]2CC(=O)N21 [Example 31, 9-N-(2-piperidylidene) amino-9-deoxyclavulanic acid.]",1.0,Inhibited,"MIC synergy test, Staph. aureus Russell (Staph. aureus Russell [2]; [3]): Inhibited"
"CC1(C)S[C@@H]2[C@H](NC(=O)[C@H](N)c3ccc(O)cc3)C(=O)N2[C@H]1C(=O)O [Amoxy-cillin, amoxycillin, reference compound]",,,"MIC synergy test, Klebsiella Aerogenes E70 (Klebsiella Aerogenes E70): 1000 µg/mL; MIC synergy test, Escherichia coli JT39 (Escherichia coli JT39; [6]): 2000 µg/mL; MIC synergy test, Staph. aureus Russell (Staph. aureus Russell [2]; [6]): 500 µg/mL"
"CCCC(N)=NC/C=C1\O[C@@H]2CC(=O)N2[C@H]1C(=O)O [Example 12, 9-N-(1-aminobutylidene)amino-9-deoxyclavulanic acid]",4.0,Inhibited,
"CC(=NC/C=C1\O[C@@H]2CC(=O)N2[C@H]1C(=O)O)NCc1ccccc1 [Example 4, 9-N-[1-(N-benzyl)aminoethylidene]amino-9-deoxyclavulanic acid]",2.0,Inhibited,
"CC(=NC/C=C1\O[C@@H]2CC(=O)N2[C@H]1C(=O)O)NCCCCCC(=O)O [Example 9, Lithium 9-N-[1-(N-5'Carboxylatopentyl)aminoethylidene]amino-9-deoxyclavlanic acid]",62.5,,
"O=C(O)[C@H]1/C(=C/CN=CN2CCCCCC2)O[C@@H]2CC(=O)N21 [Example 27, 9-N-(N,N-hexamethyleneaminomethylene) aimno-9-deoxyclavulanic acid.]",1.0,Inhibited,"MIC synergy test, Staph. aureus Russell (Staph. aureus Russell [2]; [3]): Inhibited"
"CC(=NC/C=C1\O[C@@H]2CC(=O)N2[C@H]1C(=O)O)NCCCCCC(=O)OCc1ccccc1 [Example 8, 9-N-[1(N-5-benzyloxycarbonylpentyl)aminoethylidene]amino-9-deoxyclavulanic acid]",8.0,Inhibited,
"NC=NC/C=C1\O[C@@H]2CC(=O)N2[C@H]1C(=O)O [Example 5, 9-N-(aminomethylene)amino-9-deoxyclavulanic acid]",4.0,Inhibited,
"NC(=NC/C=C1\O[C@@H]2CC(=O)N2[C@H]1C(=O)O)c1ccccc1 [Example 7, 9 N-(1-aminobenzylidene)amino-9-deoxyclavulanic acid]",8.0,Inhibited,
"COCCC(N)=NC/C=C1\O[C@@H]2CC(=O)N2[C@H]1C(=O)O [Example 13, 9-N-(1'-amino-3'-methoxypropylidene)amino-9-deoxyclavulanic acid]",16.0,,
"CC(N)=NC/C=C1\O[C@@H]2CC(=O)N2[C@H]1C(=O)O [Example 2, 9-N-(1'-aminoethylidene)amino-9-deoxyclavulanic acid]",16.0,Inhibited,
"CN(C)C=NC/C=C1\O[C@@H]2CC(=O)N2[C@H]1C(=O)O [Example 1, 9-N-(Dimethylaminomethylene) amino-9-deoxyclavulanic acid]",4.0,Inhibited,
"CSCC(N)=NC/C=C1\O[C@@H]2CC(=O)N2[C@H]1C(=O)O [Example 28, 9-N-(1'-amino-2'-methylthioethylidene) amino-9-deoxyclavulanic acid.]",2.0,,
"NC(=NC/C=C1\O[C@@H]2CC(=O)N2[C@H]1C(=O)O)C1CCC1 [Example 20, 9-N-(amino-cyclobutylmethylene) amino-9-deoxyclavulanic acid.]",4.0,Inhibited,"MIC synergy test, Escherichia coli JT39 (Escherichia coli JT39; [5]): Inhibited"
"CCC(N)=NC/C=C1\O[C@@H]2CC(=O)N2[C@H]1C(=O)O [Example 14, 9-N-(1'aminopropylidene)amino-9-deoxyclavulanic acid]",4.0,Inhibited,
"CC(=NC/C=C1\O[C@@H]2CC(=O)N2[C@H]1C(=O)O)NCC(=O)O [Example 10, Potassium 9-N-[1-(N-Carboxylatomethyl)aminoethylidene]amino-9-deoxyclavulanic acid]",62.5,,
CCNC(C)=NC/C=C1\O[C@@H]2CC(=O)N2[C@H]1C(=O)O [Example 25],4.0,Inhibited,
"NC(Cc1cccs1)=NC/C=C1\O[C@@H]2CC(=O)N2[C@H]1C(=O)O [Example 29, 9-N-(1-amino-2-[2'-thienyl]ethylidene) amino-9-deoxyclavulanic acid.]",2.0,,
"O=C(O)[C@H]1/C(=C/CN=C2CCCN2)O[C@@H]2CC(=O)N21 [Example 30, 9-N-(2-pyrrolidylidene) amino-9-deoxyclavulanic acid.]",1.0,Inhibited,"MIC synergy test, Staph. aureus Russell (Staph. aureus Russell [2]; [3]): Inhibited"
"CC(=NC/C=C1\O[C@@H]2CC(=O)N2[C@H]1C(=O)O)N(C)C [Example 22, 9-N-[1-(N,N-dimethyl)aminoethylidene] amino-9-deoxyclavulanic acid.]",≤0.5,Inhibited,"MIC synergy test, Escherichia coli JT39 (Escherichia coli JT39; [5]): Inhibited; MIC synergy test, Staph. aureus Russell (Staph. aureus Russell [2]; [3]): Inhibited"
"O=C(O)[C@H]1/C(=C/CN=CN2CCCCC2)O[C@@H]2CC(=O)N21 [Example 26, 9-N-(N,N-pentamethyleneaminomethylene) amino-9-deoxyolavulanic acid.]",≤0.5,Inhibited,"MIC synergy test, Staph. aureus Russell (Staph. aureus Russell [2]; [3]): Inhibited"
"CC(=NC/C=C1\O[C@@H]2CC(=O)N2[C@H]1C(=O)O)NCC(C)C [Example 3, 9-N-[1'-(N-isobutyl)aminoethylidene]amino-9-deoxyclavulanic acid]",4.0,Inhibited,
"CNC=NC/C=C1\O[C@@H]2CC(=O)N2[C@H]1C(=O)O [Example 11, 9-N-(N-methylaminomethylene)amino-9-deoxyclavulanic acid]",4.0,Inhibited,
"CC(C)C(N)=NC/C=C1\O[C@@H]2CC(=O)N2[C@H]1C(=O)O [Example 16, 9-N-(1 t-amino-2'-methylpropylidene) amino-9-deoxyclavulanic acid.]",4.0,Inhibited,
"O=C(O)[C@H]1/C(=C/CN=CNCc2ccccc2)O[C@@H]2CC(=O)N21 [Example 6, 9-N-(N-benzylaminomethylene)amino-9-deoxyclavulanic acid]",2.0,Inhibited,"MIC synergy test, Staph. aureus Russell (Staph. aureus Russell [2]; [3]): Inhibited"
"CNC(C)=NC/C=C1\O[C@@H]2CC(=O)N2[C@H]1C(=O)O [Example 24, 9-N-[l-(N-methyl)aminoethylidene] amino-9-deoxyclavulanic acid.]",8.0,Inhibited,
"CCCCC(N)=NC/C=C1\O[C@@H]2CC(=O)N2[C@H]1C(=O)O [Example 18, 9-N-(l-aminopentylidene) amino-9-deoxyclavulanic acid.]",2.0,Inhibited,
